Laboratory results: patent US10570099B2, “Salts of an epidermal growth factor receptor kinase inhibitor” (Celgene CAR LLC, priority 2012, dated 2020)

experiment: 1 week stability of primary screen salts at 40° C./75% RH and 80° C. (open vials, XRPD); type: physicochemical
Protocol: (open vials). TGA was carried out after the stability studies for samples containing sufficient material.

Structure (SMILES) | Stability 40° C./75% RH (open conditions) | Stability 80° C. (open conditions)
C=CC(=O)Nc1cccc(Nc2nc(Nc3ccc(N4CCN(C(C)=O)CC4)cc3OC)ncc2C(F)(F)F)c1.O=S(=O)(O)c1cccc2c(S(=O)(=O)O)cccc12 | No form change, | Possible form change,
C=CC(=O)Nc1cccc(Nc2nc(Nc3ccc(N4CCN(C(C)=O)CC4)cc3OC)ncc2C(F)(F)F)c1.O=S(=O)(O)c1ccc2ccccc2c1 | No form change, small | No form change,
C=CC(=O)Nc1cccc(Nc2nc(Nc3ccc(N4CCN(C(C)=O)CC4)cc3OC)ncc2C(F)(F)F)c1.O=S(=O)(O)c1ccccc1 [Besylate (1 equiv.) Form II] | No form change, some | No form change, some
C=CC(=O)Nc1cccc(Nc2nc(Nc3ccc(N4CCN(C(C)=O)CC4)cc3OC)ncc2C(F)(F)F)c1.O=S(=O)(O)c1ccccc1 [Besylate (1 equiv.) Form I] | No form change, | No form change,
C=CC(=O)Nc1cccc(Nc2nc(Nc3ccc(N4CCN(C(C)=O)CC4)cc3OC)ncc2C(F)(F)F)c1.O=S(=O)(O)c1ccccc1.O=S(=O)(O)c1ccccc1 [Besylate (2 equiv.) Form II] | No form change, | No form change,
C=CC(=O)Nc1cccc(Nc2nc(Nc3ccc(N4CCN(C(C)=O)CC4)cc3OC)ncc2C(F)(F)F)c1.CC1(C)C2CCC1(CS(=O)(=O)O)C(=O)C2 [Camphor-10-sulfonic acid (1 eq.) Form II] |  | Converted to Form I,
C=CC(=O)Nc1cccc(Nc2nc(Nc3ccc(N4CCN(C(C)=O)CC4)cc3OC)ncc2C(F)(F)F)c1.CC1(C)C2CCC1(CS(=O)(=O)O)C(=O)C2 [Camphor-10-sulfonic acid (1 eq.) Form I] | No form change, slight | No form change,
C=CC(=O)Nc1cccc(Nc2nc(Nc3ccc(N4CCN(C(C)=O)CC4)cc3OC)ncc2C(F)(F)F)c1.CC1(C)C2CCC1(CS(=O)(=O)O)C(=O)C2.CC1(C)C2CCC1(CS(=O)(=O)O)C(=O)C2 [Camphor-10-sulfonic acid (2 eq.) Form I] | Amorphous | Amorphous
Br.Br.C=CC(=O)Nc1cccc(Nc2nc(Nc3ccc(N4CCN(C(C)=O)CC4)cc3OC)ncc2C(F)(F)F)c1 [HBr (2 eq.) Form II] | Changed to Form I, | Potential new form,
C=CC(=O)Nc1cccc(Nc2nc(Nc3ccc(N4CCN(C(C)=O)CC4)cc3OC)ncc2C(F)(F)F)c1.Cl [Hydrochloride (1 equiv.) Form I] | No form change, | No form change,
C=CC(=O)Nc1cccc(Nc2nc(Nc3ccc(N4CCN(C(C)=O)CC4)cc3OC)ncc2C(F)(F)F)c1.Cl.Cl [Hydrochloride (2 equiv.) Form I] | No form change, | No form change,
C=CC(=O)Nc1cccc(Nc2nc(Nc3ccc(N4CCN(C(C)=O)CC4)cc3OC)ncc2C(F)(F)F)c1.O=C(O)/C=C\C(=O)O [Maleate Form III] | No clear form change | No clear form change
C=CC(=O)Nc1cccc(Nc2nc(Nc3ccc(N4CCN(C(C)=O)CC4)cc3OC)ncc2C(F)(F)F)c1.O=C(O)/C=C\C(=O)O [Maleate Form II] | No form change, | No form change,
C=CC(=O)Nc1cccc(Nc2nc(Nc3ccc(N4CCN(C(C)=O)CC4)cc3OC)ncc2C(F)(F)F)c1.O=C(O)/C=C\C(=O)O [Maleate Form I] | No form change, | No form change,
C=CC(=O)Nc1cccc(Nc2nc(Nc3ccc(N4CCN(C(C)=O)CC4)cc3OC)ncc2C(F)(F)F)c1.CS(=O)(=O)O.CS(=O)(=O)O [Mesylate Form I] | Gum formed | Amorphous solid
